Results on three molecules are retold here after US20100297229A1, “TAPENTADOL COMPOSITIONS” (Nectid Inc., priority 2007, published 2010).

Counter-ions that a name gives are not always drawn.

For experiment [1], the system named is Chronic non-cancer pain (CNCP). The experiment can be described thus: Study III: clinical trial of tapentadol and tramadol combination, VAS pain score. Format: in vivo, human. The conditions noted are these: mean ± SD, VAS 0-100 mm, N = 10. On the procedure: The following general methods were used in all of the studies;
Randomization: Randomization was performed with computer-generated random numbers in blocks of 10. Randomization codes of the monotherapy or combination therapy treatments were placed in sequentially numbered, opaque, sealed envelopes in the biopsy center. When a patient was recruited and consented, the next numbered envelope was opened by the operator, who had no knowledge of the randomization code before the treatment
Scale and Measurement: Pain was assessed using a visual analogue scale (VAS) graded from 0-100 mm. Pain scoring was performed every visit Week 1, Week 2, Week 3, Week 4, Week 5 and Week 6. The patients were taught with a standard method by the physician how to use a VAS scoring from 0 to 100 mm to grade the intensity of pain experienced during the treatment. On that scale, the left endpoint, 0, was defined as no pain and the right endpoint 100, as the worst pain the patient could imagine. There were no further marks on the line. The intensity of pain was indicated by the distance in millimeters from the left end. Patients were asked to grade the pain intensity after the administration of drugs and the pain was assessed by the patient in their weekly pain score diary. The doctors who prescribed the medicines obtained all the VAS forms for that specific patient.
Statistical Analysis: Data are expressed as means±SD. Differences in VAS were analyzed with use of the unpaired Student t test and differences in pain score reductions between the two groups were analyzed with use of the Mann-Whitney U test for the median difference. Similar statistical tests were used for between group comparisons of other outcome variables as appropriate. A two tailed P value of less than. […] SAS software was used for the statistical analysis.
The Fixed dose combination of slow release tapentadol hydrochloride and tramadol hydrochloride was tested in a human clinical trial. In this study III, 40 patients were used in a clinical trial were suffering from Chronic non-cancer pain (CNCP), defined as pain for longer than 6 months, including neuropathic pain, osteoarthritis, rheumatoid arthritis, fibromyalgia, and back and musculoskeletal pain were included in the clinical trial. No effort was made to segregate the patients based on the type of pain nor did we evaluate the extent of pain relief on the basis of pain type. Those patients with migraines, dental pain, abdominal pains (from chronic pancreatitis, kidney stones, etc.) and ischemic pain from vascular disease were excluded because they are usually not classified as CNCP. Patients with history of addiction (alcohol or drugs) were excluded from the trials.

The test system of experiment [2] is pain intensity associated with knee osteoarthritis. In words: Study I: 6-week clinical trial of tapentadol and NSAID combination, Arthritis Pain Intensity VAS. In kind it is in vivo, human. To be noted: primary endpoint; average of Weeks 1-6; knee osteoarthritis patients; FIG. 2.

Take `COc1cccc([C@]2(O)CCCC[C@H]2CN(C)C)c1` (racemic) [Tramadol, (±) cis-2-[(dimethylamino)methyl]-1-(3-methoxyphenyl)cyclo-hexanol hydrochloride]: the “VAS Pain Score” value came out at 32.4 ± 21.2 in experiment [1] (time 0 hours); 23.1 ± 20.1 in experiment [1] (time 3 hours); 18.8 ± 20.6 in experiment [1] (time 6 hours); 14.9 ± 17.2 in experiment [1] (time 9 hours); 13.1 ± 21.2 in experiment [1] (time 12 hours); 13.9 ± 19.2 in experiment [1] (time 15 hours). Besides, the “VAS Pain Score” value in experiment [1] (time 18 hours) stood at 15.4 ± 21.3; in experiment [1] (time 21 hours), 14.5 ± 19.2; in experiment [1] (time 24 hours) it was 13.9 ± 19.2.

With `COc1ccc2cc([C@H](C)C(=O)O)ccc2c1` [Naproxen, (+)-(S)-2-(6-methoxy-naphthalen-2-yl) propanoic acid], the “LS Mean change from baseline over 6 weeks in the arthritis pain intensity VAS” value in experiment [2] stood at 28%.

In the case of `CC[C@@H](c1cccc(O)c1)[C@@H](C)CN(C)C` [Tapentadol, 3-(3-Dimethylamino-1-ethyl-2-methyl-propyl)-phenol], in experiment [2], the “LS Mean change from baseline over 6 weeks in the arthritis pain intensity VAS” value was 38%. Also, the “VAS Pain Score” value is 33.7 ± 18.2 in experiment [1] (time 0 hours); 24.8 ± 19.1 in experiment [1] (time 3 hours); 21.1 ± 22.9 in experiment [1] (time 6 hours); 14.2 ± 23.1 in experiment [1] (time 9 hours); 11.2 ± 20.9 in experiment [1] (time 12 hours); 11.0 ± 16.2 in experiment [1] (time 15 hours). In addition, the “VAS Pain Score” value in experiment [1] (time 18 hours) came out at 9.5 ± 17.8; in experiment [1] (time 21 hours), 10.4 ± 16.2; in experiment [1] (time 24 hours), 11.6 ± 16.2.
